Measurements from ChEMBL document CHEMBL1201862, “PubChem BioAssay data set” (2004).
Active and inactive are the calls of the source.

Columns and labels:
[1] = molecular target: T1, Cytochrome P450 2C9 (Homo sapiens, UniProt P11712)
[2] = molecular target: Genome polyprotein (dengue virus type 2, UniProt P29990); experiment: flavivirus cap methylation enzyme inhibition – biochemical, confirmation dose response, primary screen (AID 588689); assay type: functional
[3] = molecular target: T2, Coagulation factor XII (Homo sapiens, UniProt P00748); assay type: functional;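 note: activated factor XIIa alpha cleaving a fluorogenic AMC peptide substrate; inhibitor potency from loss of enzyme activity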
T2 sequence (P00748 whole entry): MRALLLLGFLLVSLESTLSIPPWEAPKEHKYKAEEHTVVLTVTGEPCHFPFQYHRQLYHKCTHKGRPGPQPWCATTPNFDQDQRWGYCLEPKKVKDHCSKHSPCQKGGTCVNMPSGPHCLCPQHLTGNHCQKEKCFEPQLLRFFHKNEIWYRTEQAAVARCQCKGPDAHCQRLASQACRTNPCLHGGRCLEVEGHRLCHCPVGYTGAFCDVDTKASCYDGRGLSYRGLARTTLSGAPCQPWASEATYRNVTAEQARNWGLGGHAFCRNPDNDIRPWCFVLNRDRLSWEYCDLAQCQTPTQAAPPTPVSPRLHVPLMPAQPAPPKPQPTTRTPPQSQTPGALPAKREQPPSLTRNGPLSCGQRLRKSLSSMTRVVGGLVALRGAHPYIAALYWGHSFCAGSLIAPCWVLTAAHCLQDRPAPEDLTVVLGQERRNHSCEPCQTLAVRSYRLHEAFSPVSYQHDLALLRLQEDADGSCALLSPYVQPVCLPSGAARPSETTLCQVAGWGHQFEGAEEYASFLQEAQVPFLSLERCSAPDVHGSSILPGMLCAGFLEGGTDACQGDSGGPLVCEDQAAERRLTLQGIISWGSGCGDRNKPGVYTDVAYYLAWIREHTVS

[4] = tested on: Vero; experiment: cells; assay type: functional, cell-based; conditions: Chlorocebus sabaeus
[5] = molecular target: T3, High affinity choline transporter 1 (Homo sapiens, UniProt Q9GZV3); experiment: human choline transporter blockers, potency – cell-based, 5-point CRC, membrane potential dye, dose response (AID 504840); assay type: functional
T3 sequence (Q9GZV3 whole entry): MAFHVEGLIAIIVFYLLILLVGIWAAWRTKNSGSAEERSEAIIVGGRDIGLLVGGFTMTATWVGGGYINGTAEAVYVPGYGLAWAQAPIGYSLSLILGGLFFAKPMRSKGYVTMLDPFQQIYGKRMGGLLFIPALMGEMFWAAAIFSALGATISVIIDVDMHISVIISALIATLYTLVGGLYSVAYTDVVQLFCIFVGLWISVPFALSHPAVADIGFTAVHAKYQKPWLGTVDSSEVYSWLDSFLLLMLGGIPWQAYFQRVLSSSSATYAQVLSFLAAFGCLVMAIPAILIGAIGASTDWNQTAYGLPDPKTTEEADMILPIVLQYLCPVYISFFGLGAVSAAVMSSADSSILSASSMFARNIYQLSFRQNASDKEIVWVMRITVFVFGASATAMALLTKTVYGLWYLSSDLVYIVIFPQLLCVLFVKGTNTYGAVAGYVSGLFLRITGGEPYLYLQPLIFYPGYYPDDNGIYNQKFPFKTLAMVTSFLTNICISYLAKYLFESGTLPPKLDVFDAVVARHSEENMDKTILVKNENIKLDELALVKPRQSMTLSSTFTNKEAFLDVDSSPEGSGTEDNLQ

[6] = molecular target: T4, Polyadenylate-binding protein 1 (Homo sapiens, UniProt P11940); experiment: MLLE binding blockers, Cy5 peptide tracer – biochemical, fluorescence polarization, Cy5-PAM2 peptide, secondary, miRNA deadenylation inhibitor project, dose response (AID 602260); assay type: functional; conditions: read-out: IC50_Mean
[7] = molecular target: T4, Polyadenylate-binding protein 1; experiment: MLLE domain peptide-binding blockers, IC50 – biochemical, fluorescence polarization, FITC-PAM2 peptide, dose response (AID 602259); assay type: functional; conditions: read-out: IC50_Mean
[8] = Trypanosoma cruzi growth suppression in host cells – NIH3T3 host cells, beta-gal luminescence, confirmation (AID 2044); assay type: functional, cell-based;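 note: intracellular parasites grown in NIH/3T3 mouse fibroblasts as host cells; luminescent beta-galactosidase reporter signal from transgenic T. cruzi replicating inside host cells; inhibitors lower the luminescence signal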
[9] = NIH3T3 cell viability loss – ATP luminescence, mouse fibroblasts, counter-screen, dose response (AID 2010); assay type: functional, cell-based;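 note: cells exposed to compound for about 90 hours before reading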
[10] = molecular target: T5, Microphthalmia-associated transcription factor (Homo sapiens, UniProt O75030); experiment: reducers of TRPM1 reporter luminescence, concentration series – cell-based, SK-MEL-5, cherry-picked, set 3, MITF inhibitor project, dose response (AID 493073); assay type: functional;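 note: SK-MEL-5 melanoma cells with luciferase driven by the MITF target TRPM1 promoter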
T5 sequence (O75030 whole entry): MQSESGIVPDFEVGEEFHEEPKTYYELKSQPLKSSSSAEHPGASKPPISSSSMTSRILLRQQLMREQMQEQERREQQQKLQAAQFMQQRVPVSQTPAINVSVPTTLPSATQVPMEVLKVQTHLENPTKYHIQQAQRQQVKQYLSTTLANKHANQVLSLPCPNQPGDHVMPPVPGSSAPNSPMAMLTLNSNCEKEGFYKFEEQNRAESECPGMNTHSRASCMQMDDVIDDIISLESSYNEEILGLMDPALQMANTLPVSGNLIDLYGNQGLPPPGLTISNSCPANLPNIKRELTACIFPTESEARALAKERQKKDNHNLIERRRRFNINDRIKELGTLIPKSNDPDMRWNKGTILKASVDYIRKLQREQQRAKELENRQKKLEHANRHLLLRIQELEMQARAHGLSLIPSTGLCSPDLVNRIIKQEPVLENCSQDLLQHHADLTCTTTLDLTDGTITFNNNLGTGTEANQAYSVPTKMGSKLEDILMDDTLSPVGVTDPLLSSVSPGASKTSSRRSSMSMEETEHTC

[11] = tested on: INS1; experiment: INS-1E survival protection against cytokine death – cell-based, luminescence, retest, dose response (AID 449756); assay type: functional; conditions: Rattus norvegicus;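 note: cell death triggered by IL-1 beta plus TNF-alpha plus IFN-gamma mixture; protective hits raise ATP signal compared with cytokine alone wells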
[12] = molecular target: T6, Replicative DNA helicase DnaB (Mycobacterium tuberculosis, UniProt P9WMR3); experiment: DnaB intein splicing inhibitors, dose response, biochemical, cell-free fluorescence (AID 449749); assay type: functional
T6 sequence (P9WMR3 whole entry): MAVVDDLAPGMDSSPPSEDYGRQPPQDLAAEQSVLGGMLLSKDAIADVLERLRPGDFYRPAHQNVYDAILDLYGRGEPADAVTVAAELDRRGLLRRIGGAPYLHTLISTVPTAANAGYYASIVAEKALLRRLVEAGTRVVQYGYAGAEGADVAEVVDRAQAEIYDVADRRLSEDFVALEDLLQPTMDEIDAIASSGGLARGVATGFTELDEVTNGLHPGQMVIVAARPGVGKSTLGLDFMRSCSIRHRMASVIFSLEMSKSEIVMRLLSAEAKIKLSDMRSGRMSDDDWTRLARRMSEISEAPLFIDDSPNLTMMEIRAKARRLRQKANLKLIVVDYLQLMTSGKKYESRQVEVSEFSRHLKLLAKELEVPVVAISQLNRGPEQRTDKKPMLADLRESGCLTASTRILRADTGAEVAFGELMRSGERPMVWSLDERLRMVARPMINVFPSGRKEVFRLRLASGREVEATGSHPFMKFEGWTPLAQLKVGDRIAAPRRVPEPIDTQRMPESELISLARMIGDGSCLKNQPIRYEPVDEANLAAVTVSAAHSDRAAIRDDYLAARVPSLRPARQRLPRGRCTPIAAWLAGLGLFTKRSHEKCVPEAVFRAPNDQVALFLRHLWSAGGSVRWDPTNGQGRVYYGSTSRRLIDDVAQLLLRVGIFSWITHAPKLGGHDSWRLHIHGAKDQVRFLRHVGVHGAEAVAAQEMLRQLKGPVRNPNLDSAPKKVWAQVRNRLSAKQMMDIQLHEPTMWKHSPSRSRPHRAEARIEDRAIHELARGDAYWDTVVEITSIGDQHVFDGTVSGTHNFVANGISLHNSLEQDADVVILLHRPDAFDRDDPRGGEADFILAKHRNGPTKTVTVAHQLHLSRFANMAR

[13] = molecular target: T7, Protein RecA (Mycobacterium tuberculosis, UniProt P9WHJ3); experiment: Fluorescence Cell-Free Homogeneous Dose Retest to Identify Inhibitors of RecA-Intein Splicing Activity. [Related pubchem assays (depositor defined):AID2097, AID2223, AID489010, AID492950]; assay type: functional
T7 sequence (P9WHJ3 whole entry): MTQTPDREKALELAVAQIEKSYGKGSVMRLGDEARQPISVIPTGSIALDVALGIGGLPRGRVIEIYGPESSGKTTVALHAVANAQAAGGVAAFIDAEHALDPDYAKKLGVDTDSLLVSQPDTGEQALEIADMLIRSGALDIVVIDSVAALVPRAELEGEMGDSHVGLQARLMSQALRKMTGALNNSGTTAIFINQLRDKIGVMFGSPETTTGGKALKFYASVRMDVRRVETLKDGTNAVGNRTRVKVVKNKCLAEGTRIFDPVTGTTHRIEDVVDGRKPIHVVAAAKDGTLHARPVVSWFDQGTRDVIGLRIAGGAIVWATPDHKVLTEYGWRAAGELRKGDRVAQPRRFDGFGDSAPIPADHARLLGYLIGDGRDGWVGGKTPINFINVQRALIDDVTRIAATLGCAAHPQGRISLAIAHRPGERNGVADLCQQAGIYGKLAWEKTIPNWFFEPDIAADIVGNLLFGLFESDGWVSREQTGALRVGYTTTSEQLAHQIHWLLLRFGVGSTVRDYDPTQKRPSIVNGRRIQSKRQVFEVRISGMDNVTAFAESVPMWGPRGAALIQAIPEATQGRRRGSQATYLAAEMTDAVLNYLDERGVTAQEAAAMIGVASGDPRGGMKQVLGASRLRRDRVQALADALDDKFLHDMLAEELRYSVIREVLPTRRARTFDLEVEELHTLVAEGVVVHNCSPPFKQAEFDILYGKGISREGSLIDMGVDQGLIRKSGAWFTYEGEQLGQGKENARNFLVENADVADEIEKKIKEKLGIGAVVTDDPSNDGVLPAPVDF

[14] = cells; assay type: functional
[15] = molecular target: Cytochrome P450 2C19 (Homo sapiens, UniProt P33261); experiment: Cytochrome panel assay with activity outcomes. Panel member name: p450-cyp2c19 Compounds with AC50 equal or less than 10 uM are considered active; assay type: functional; conditions: read-out: AC50
[16] = THP-1 cell cytotoxicity, dose response, cytotoxicity control for non-replicating M. tuberculosis project (AID 489025); assay type: functional
[17] = molecular target: Cytochrome P450 2D6 (Homo sapiens, UniProt P10635);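 note: CYP2D6 member of a cytochrome P450 panel assay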
[18] = molecular target: Cytochrome P450 3A4 (Homo sapiens, UniProt P08684);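 note: CYP3A4 tested as one member of a cytochrome P450 panel screen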
[19] = molecular target: T1, Cytochrome P450 2C9; remark: listed apart in the source
[20] = luciferase reporter signal suppression in cells – H4 neuroglioma cells, luminescence, dose response (AID 1990); assay type: functional, cell-based
[21] = Luminescence Cell-Based Dose Response HTS to Identify Inhibitors of 5'UTR Stem-Loop Driven Prion Protein mRNA Translation in H4 Neuroglioblastoma Cells. [Related pubchem assays: 1827 (Project Summary), 1813 (Primary HTS)]; assay type: functional
[22] = alpha-synuclein stem-loop luciferase translation blockers – H4 neuroglioma cells, luminescence, confirmation (AID 1988); assay type: functional, cell-based

Cytochrome P450 2C19, sequence (P33261 whole entry): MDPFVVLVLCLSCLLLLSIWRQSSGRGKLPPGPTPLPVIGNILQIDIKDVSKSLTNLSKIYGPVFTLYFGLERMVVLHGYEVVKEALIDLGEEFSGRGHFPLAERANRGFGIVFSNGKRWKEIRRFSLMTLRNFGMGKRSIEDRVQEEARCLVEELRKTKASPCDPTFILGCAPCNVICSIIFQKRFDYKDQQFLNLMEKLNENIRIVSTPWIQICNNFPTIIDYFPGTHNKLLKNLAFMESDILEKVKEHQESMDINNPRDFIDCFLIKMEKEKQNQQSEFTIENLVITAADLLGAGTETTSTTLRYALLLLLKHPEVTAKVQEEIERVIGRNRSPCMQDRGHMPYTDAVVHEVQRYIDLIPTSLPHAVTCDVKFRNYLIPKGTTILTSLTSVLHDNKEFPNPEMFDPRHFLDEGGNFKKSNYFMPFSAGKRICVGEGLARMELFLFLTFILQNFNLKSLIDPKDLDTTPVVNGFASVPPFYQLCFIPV
T1 sequence (P11712 whole entry): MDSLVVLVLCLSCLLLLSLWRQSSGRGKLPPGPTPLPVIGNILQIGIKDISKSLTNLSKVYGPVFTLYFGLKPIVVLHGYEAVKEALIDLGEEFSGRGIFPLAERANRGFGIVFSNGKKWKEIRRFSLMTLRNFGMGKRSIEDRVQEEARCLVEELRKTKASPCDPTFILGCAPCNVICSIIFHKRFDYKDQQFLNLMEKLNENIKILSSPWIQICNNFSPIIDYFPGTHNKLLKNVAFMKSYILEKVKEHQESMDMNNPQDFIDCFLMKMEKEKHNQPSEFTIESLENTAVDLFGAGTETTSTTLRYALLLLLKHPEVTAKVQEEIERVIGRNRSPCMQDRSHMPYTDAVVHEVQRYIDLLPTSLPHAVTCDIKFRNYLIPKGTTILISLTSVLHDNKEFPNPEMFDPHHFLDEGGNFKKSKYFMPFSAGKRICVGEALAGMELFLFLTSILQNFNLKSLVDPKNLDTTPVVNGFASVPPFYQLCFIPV
T4 sequence (P11940 whole entry, the tested form may be a part): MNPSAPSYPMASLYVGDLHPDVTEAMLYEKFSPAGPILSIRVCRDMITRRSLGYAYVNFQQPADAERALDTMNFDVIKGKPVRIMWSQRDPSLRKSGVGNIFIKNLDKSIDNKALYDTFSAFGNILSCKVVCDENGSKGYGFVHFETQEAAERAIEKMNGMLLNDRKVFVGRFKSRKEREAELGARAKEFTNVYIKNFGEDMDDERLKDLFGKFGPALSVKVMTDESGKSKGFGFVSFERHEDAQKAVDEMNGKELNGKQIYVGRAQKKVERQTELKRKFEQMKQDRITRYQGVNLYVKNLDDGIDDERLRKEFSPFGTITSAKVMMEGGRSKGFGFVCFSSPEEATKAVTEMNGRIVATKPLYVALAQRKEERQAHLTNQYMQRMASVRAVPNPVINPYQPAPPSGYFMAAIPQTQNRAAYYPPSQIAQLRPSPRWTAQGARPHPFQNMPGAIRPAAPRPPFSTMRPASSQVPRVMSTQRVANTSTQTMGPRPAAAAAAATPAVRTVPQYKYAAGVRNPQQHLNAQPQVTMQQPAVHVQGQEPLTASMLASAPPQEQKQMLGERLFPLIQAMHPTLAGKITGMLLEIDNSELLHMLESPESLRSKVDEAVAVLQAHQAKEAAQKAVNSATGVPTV
Genome polyprotein, sequence (P29990 2492-3391 limits assumed): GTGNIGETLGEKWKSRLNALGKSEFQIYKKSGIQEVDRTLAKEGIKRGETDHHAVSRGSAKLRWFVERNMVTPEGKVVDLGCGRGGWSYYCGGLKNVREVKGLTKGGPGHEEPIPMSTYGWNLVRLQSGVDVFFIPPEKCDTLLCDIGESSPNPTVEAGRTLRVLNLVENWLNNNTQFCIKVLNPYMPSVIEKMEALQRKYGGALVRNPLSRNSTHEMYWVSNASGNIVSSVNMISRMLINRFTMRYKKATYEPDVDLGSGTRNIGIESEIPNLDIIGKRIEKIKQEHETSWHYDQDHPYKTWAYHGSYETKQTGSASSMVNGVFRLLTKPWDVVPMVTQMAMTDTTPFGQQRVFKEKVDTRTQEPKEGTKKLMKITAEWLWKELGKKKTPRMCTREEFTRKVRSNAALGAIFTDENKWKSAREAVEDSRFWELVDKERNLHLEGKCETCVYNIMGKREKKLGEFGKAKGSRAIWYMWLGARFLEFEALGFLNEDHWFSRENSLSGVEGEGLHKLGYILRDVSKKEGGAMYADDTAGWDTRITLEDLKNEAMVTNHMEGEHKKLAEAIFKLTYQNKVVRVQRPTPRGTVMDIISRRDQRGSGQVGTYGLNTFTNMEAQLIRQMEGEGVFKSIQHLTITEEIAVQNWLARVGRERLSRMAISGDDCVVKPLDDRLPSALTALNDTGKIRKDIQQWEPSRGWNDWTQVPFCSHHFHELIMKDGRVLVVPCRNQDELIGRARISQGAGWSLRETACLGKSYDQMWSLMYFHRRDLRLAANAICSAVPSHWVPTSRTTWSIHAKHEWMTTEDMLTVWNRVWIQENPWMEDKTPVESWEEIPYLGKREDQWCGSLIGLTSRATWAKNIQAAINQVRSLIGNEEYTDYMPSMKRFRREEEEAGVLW
Cytochrome P450 3A4, sequence (P08684 whole entry): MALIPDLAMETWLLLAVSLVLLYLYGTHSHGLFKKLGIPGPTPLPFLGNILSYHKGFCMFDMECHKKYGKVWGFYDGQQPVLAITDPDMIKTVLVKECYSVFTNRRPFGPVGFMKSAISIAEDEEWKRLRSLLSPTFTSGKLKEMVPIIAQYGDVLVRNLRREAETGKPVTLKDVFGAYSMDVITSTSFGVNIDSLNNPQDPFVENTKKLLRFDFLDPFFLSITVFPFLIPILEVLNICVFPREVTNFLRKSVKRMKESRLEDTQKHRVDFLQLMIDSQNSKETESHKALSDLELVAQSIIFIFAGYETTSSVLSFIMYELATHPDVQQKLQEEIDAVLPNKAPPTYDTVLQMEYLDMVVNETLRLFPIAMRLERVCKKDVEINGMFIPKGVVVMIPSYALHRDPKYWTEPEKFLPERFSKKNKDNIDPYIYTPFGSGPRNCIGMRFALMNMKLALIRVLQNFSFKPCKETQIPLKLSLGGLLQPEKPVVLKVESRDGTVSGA
Cytochrome P450 2D6, sequence (P10635 whole entry): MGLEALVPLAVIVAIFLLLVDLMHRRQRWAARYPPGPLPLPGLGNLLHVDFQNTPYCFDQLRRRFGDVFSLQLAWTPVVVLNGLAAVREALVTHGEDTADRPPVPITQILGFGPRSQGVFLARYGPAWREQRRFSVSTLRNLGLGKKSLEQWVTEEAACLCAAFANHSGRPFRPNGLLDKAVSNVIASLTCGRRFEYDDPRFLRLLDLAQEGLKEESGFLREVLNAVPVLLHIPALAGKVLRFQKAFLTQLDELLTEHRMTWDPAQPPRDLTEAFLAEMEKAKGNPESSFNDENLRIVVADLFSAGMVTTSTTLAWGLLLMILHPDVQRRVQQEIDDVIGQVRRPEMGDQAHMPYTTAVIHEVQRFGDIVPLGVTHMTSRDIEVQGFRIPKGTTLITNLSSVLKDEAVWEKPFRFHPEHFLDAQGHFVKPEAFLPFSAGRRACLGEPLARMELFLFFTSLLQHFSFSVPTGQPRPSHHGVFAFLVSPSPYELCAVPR

C=CCSC[C@@H]1Nc2cc(Cl)c(S(N)(=O)=O)cc2S(=O)(=O)N1
AC50 [1]: inconclusive

O=[N+]([O-])c1cccc(/C=C/c2nc(O)nc(O)c2[N+](=O)[O-])c1
IC50 [2]: 72.8 µM (active)

CCCn1cc(CN2CCCC(C(=O)c3cccc(OC)c3)C2)c(C)n1 (stereo not drawn)
IC50 [3]: > 50 µM (inactive)

Cc1nn(CC(=O)N2CCc3ccccc3C2)c(C)c1[N+](=O)[O-]
IC50 [3]: > 50 µM (inactive)

COc1ccc(C(=O)NC2CCCc3c2cnn3-c2cccc(C)c2C)o1 (stereo not drawn)
IC50 [4]: > 25 µM (active)

CCN(CC)c1ccc(/C=N/NS(=O)(=O)c2cccc([N+](=O)[O-])c2)cc1
IC50 [3]: > 50 µM (inactive)

Cc1ccc(NC(S)=Nc2ccc3[nH]c(O)nc3c2)cc1C
IC50 [5]: 14.5 µM (active)
IC50 [6]: > 66 µM (inactive)
IC50 [7]: > 66 µM (inactive)

COc1cc(NC(=O)c2ccc([N+](=O)[O-])o2)ccc1NC(=O)c1cccs1
EC50 [8]: 0.548 µM (active)
EC50 [9]: > 60 µM (not active)
AC50 [10]: 8.46 µM (active)
AC50 [11]: 11.2 µM (active)

CS(=O)(=O)N(Cc1ccccc1)c1ccc(C(=O)NC2CCCCC2O)cc1 (stereo not drawn)
IC50 [3]: > 50 µM (inactive)

C#CCOc1ccc(/C=C2/C(=O)N(c3cccc(C(=O)O)c3)N=C2C)cc1OC
AC50 [12]: 2.41 µM (active)
EC50 [13]: 2.01 µM (active)
IC50 [2]: 8.42 µM (active)

OC1(c2cccs2)C[N+](c2ccc(Br)cc2)=C2SCCCN21 (stereo not drawn)
IC50 [4]: 14.9 µM (active)

CCC(C)n1nnc2c(=O)oc3ccccc3c21 (stereo not drawn)
IC50 [14]: 5.77 µM (active)
AC50 [15]: 8.91 µM (inconclusive)
AC50 [1]: inconclusive

CC(C)OC(=O)c1cccc(NC(=O)CSc2nnc(N)s2)c1
IC50 [3]: > 50 µM (inactive)

O=C(CCl)N(Cc1cc(O)nc2ccccc12)c1ccccc1
AC50 [10]: 5.42 µM (active)
AC50 [12]: 5.06 µM (active)
EC50 [13]: 2.38 µM (active)

CCOc1cc2c(C)cc(=O)oc2cc1Cl
AC50 [15]: 14.1 µM (inconclusive)
AC50 [1]: inconclusive

Cc1cccc(-n2cccc2)c1C#N
AC50 [1]: inconclusive

CCC(C)[C@H](NC(=O)Nc1ccc(C(C)=O)cc1)C(=O)OC (stereo partly drawn)
IC50 [3]: > 50 µM (inactive)

Cc1ccccc1-c1nc(N2CCOCC2)c2ccccc2n1
AC50 [15]: 39.8 µM (inconclusive)
AC50 [1]: inconclusive

COc1ccc(C(=O)NCC(=O)N/N=C/c2ccc([N+](=O)[O-])o2)cc1OC
CC50 [16]: 24 µM (active)
IC50 [14]: 4.08 µM (active)

CCCC(=O)/N=C1\SC2CS(=O)(=O)CC2N1c1ccc(CC)cc1 (stereo not drawn)
IC50 [3]: > 50 µM (inactive)
AC50 [17]: 15.8 µM (inconclusive)
AC50 [18]: 12.6 µM (inconclusive)
AC50 [19]: 10 µM (inconclusive)

COc1ccc(CN(C)C(=S)Nc2ccc(Cl)cc2)cc1
IC50 [3]: > 50 µM (inactive)

Cc1cccc2cc(=O)[nH]c(C)c12
AC50 [1]: inconclusive

Nc1[nH]nc2nc(NCc3ccccc3)c3c(c12)CCN(Cc1ccccc1)C3
EC50 [20]: 20.1 µM (active)
EC50 [21]: 16.3 µM (active)
EC50 [22]: > 120 µM (not active)
IC50 [4]: > 25 µM (active)
